Measured values published in ChEMBL document CHEMBL1141641, “SAR studies of capsazepinoid bronchodilators. Part 1: The importance of the catechol moiety and aspects of the B-ring structure” (Bioorg Med Chem, 2008).

Species: Homo sapiens
Assay: Bronchodilation activity against leukotriene D4-induced constriction in human lung small airways assessed as remaining contraction at 10 uM after 1.5 hrs relative to control
Format: functional

SMILES	Remaining contraction
Oc1cc2c(cc1O)CN(C(=S)NCCc1ccc(Cl)cc1)C2	56%
Oc1ccc2c(c1)CN(C(=S)NCCc1ccc(Cl)cc1)C2	41%
CC1c2cc(O)c(O)cc2CCN1C(=S)NCCc1ccc(Cl)cc1 (centres undefined)	58%
Oc1ccc2c(c1O)CCN(C(=S)NCCc1ccc(Cl)cc1)C2	63%
Oc1ccc2c(c1)CCCN(C(=S)NCCc1ccc(Cl)cc1)C2	53%
Oc1ccc2c(c1)CN(C(=S)NCCc1ccc(Cl)cc1)CCC2	40%
Oc1ccc(CCNC(=S)NCCc2ccc(Cl)cc2)cc1O	72%
Oc1ccc(CNC(=S)NCCc2ccc(Cl)cc2)cc1O	69%
Oc1ccc2c(c1)CCN(C(=S)NCCc1ccc(Cl)cc1)C2	52%
Oc1cccc2c1CN(C(=S)NCCc1ccc(Cl)cc1)C2	82%
Oc1cc2c(cc1O)CN(C(=S)NCCc1ccc(Cl)cc1)CC2	36%
Oc1cc2c(cc1O)C(Cc1ccccc1)N(C(=S)NCCc1ccc(Cl)cc1)CC2 (centres undefined)	79%
CN(Cc1ccc(O)c(O)c1)C(=S)NCCc1ccc(Cl)cc1	69%
CC1Cc2cc(O)c(O)cc2CN1C(=S)NCCc1ccc(Cl)cc1 (centres undefined)	70%
Oc1ccc2c(c1)CN(C(=S)NCCc1ccc(Cl)cc1)CC2	75%
Oc1cc2c(cc1O)CCN(C(=S)NCCc1ccc(Cl)cc1)CC2	54%
Oc1cccc2c1CCN(C(=S)NCCc1ccc(Cl)cc1)C2	48%
Oc1cccc2c1CN(C(=S)NCCc1ccc(Cl)cc1)CC2	73%
Oc1cc2c(cc1O)CN(C(=S)NCCc1ccc(Cl)cc1)CCC2	55%
